Reference: DBAASP
Values after ≈ are worked out from the molar mass of the structure shown.

Tests used:
Test in all cases: ≥ marks a high value that may be exact or a test limit, other limits are often not marked, values filed in µg/mL are converted to µM
[1] = tested on: Escherichia coli ATCC 25922
[2] = tested on: Klebsiella pneumoniae KK3 9904
[3] = tested on: Staphylococcus epidermidis RP62A
Staphylococcus aureus = tested on: Staphylococcus aureus
[4] = tested on: Staphylococcus aureus NCTC 8325
[5] = tested on: Enterobacter cloacae NHTCC 53001
[6] = tested on: Candida albicans ATCC 90028
[7] = tested on: Pseudomonas aeruginosa ATCC 27853
[8] = tested on: Enterococcus faecalis ATCC 29212
[9] = tested on: Proteus mirabilis ATCC 25933
[10] = tested on: Salmonella enterica subsp. enterica serovar Typhimurium ATCC 14028
[11] = tested on: Staphylococcus epidermidis ATCC 12228
[12] = tested on: Micrococcus luteus ATCC 10240
[13] = tested on: Shigella dysenteriae ATCC 9752
[14] = tested on: Klebsiella pneumoniae ATCC 10031
[15] = tested on: Bacillus subtilis ATCC 6633
[16] = tested on: Staphylococcus aureus ATCC 6538P

Row | MIC [1] [µM] | MIC [2] [µM] | MIC [3] [µM] | MIC (Staphylococcus aureus) [µM] | MIC [4] [µM] | MIC [5] [µM] | MIC [6] [µM] | MIC [7] [µM] | MIC [8] [µM] | MIC [9] [µM] | MIC [10] [µM] | MIC [11] [µM] | MIC [12] [µM] | MIC [13] [µM] | MIC [14] [µM] | MIC [15] [µM] | MIC [16] [µM] | Compound
1 | 3 (≈ 7.11 µg/mL) | 6 (≈ 14.2 µg/mL) | ≥ 50 | 32 (≈ 75.8 µg/mL) | ≥ 100 | 6 (≈ 14.2 µg/mL) | ≥ 100 | 25 (≈ 59.2 µg/mL) | > 100 | ≥ 100 |  |  |  |  |  |  |  | CC[C@H](C)[C@H](NC(=O)[C@H](Cc1cnc[nH]1)NC(=O)CNC(=O)[C@H](C)NC(=O)[C@@H](NC(=O)[C@@H](NC(=O)[C@H](CCCCN)NC(=O)[C@@H](NC(=O)[C@H](Cc1ccccc1)NC(=O)[C@H](C)NC(=O)[C@H](CCCCN)NC(=O)[C@H](C)NC(=O)[C@H](C)NC(=O)CNC(=O)[C@H](CCCCN)NC(=O)[C@H](CC(C)C)NC(=O)[C@@H](NC(=O)[C@H](CC(=O)O)NC(=O)[C@H](CCCN=C(N)N)NC(=O)[C@H](Cc1ccccc1)NC(=O)CN)C(C)C)C(C)C)[C@@H](C)O)C(C)C)C(=O)N[C@@H](C)C(=O)N[C@@H](CC(N)=O)C(N)=O [GFRDVLKGAAKAFVKTVAGHIAN]
2 | 5 (≈ 16.3 µg/mL) | 10 (≈ 32.6 µg/mL) | 20 (≈ 65.2 µg/mL) |  | 20 (≈ 65.2 µg/mL) | 5 (≈ 16.3 µg/mL) | ≥ 40 | 5 (≈ 16.3 µg/mL) | > 40 | ≥ 40 |  |  |  |  |  |  |  | CC[C@H](C)[C@H](NC(=O)CN)C(=O)N[C@@H](CC(C)C)C(=O)N[C@@H](CO)C(=O)N[C@@H](CO)C(=O)N[C@@H](Cc1ccccc1)C(=O)N[C@@H](CCCCN)C(=O)NCC(=O)N[C@H](C(=O)N[C@@H](C)C(=O)N[C@@H](CCCCN)C(=O)NCC(=O)N[C@H](C(=O)N[C@@H](C)C(=O)N[C@@H](CCCCN)C(=O)N[C@@H](CC(N)=O)C(=O)N[C@@H](CC(C)C)C(=O)N[C@@H](C)C(=O)NCC(=O)N[C@@H](CCCCN)C(=O)N[C@@H](CC(C)C)C(=O)N[C@@H](CC(C)C)C(=O)N[C@@H](CC(=O)O)C(=O)N[C@@H](CCC(=O)O)C(=O)N[C@@H](CC(C)C)C(=O)N[C@@H](CCCCN)C(=O)N[C@H]1CSSC[C@@H](C(=O)O)NC(=O)CNC(=O)[C@H]([C@@H](C)O)NC(=O)[C@H]([C@@H](C)CC)NC(=O)[C@H](CCCCN)NC1=O)C(C)C)C(C)C [GILSSFKGVAKGVAKNLAGKLLDELKCKITGC]
3 | > 215 |  |  |  |  |  |  | > 215 |  |  | > 215 | > 215 | 26.9 (≈ 25 µg/mL) | ≥ 108 | ≥ 215 | ≥ 108 | ≥ 215 | CC(C)C[C@H](NC(=O)[C@H](Cc1c[nH]c2ccccc12)NC(=O)[C@H](CCCCN)NC(=O)[C@H](CC(C)C)NC(=O)[C@@H](N)CC(C)C)C(=O)N[C@@H](CCCCN)C(=O)N[C@@H](CCCCN)C(N)=O [LLKWLKK]
